Data as given in US11304897B2, “Pharmaceutical formulation containing umeclidinium bromide and vilanterol trifenatate” (ANOVENT PHARMACEUTICAL (U.S.), LLC, priority 2020, dated 2022).
Converted amounts (≈) assume the structure as drawn.

Assay: Solubility in different cosolvents
Assay type: physicochemical
Excerpt: Solubility in Different Cosolvents: 5% tween-80: Dissolve 5 g tween-80 in 100 g purified water. 5% Sulfobutylether β-cyclodextrin: Dissolve 5 g Sulfobutylether β-cyclodextrin in 100 g purified water. 20% Sulfobutylether β-cyclodextrin: Dissolve 20 g Sulfobutylether β-cyclodextrin in 100 g purified water.

[1] = 0.2 mg/ml tween-80, aqueous with cosolvent or surfactant or cyclodextrin
[2] = 5% sulfobutylether β-cyclodextrin in purified water, aqueous with cosolvent or surfactant or cyclodextrin
[3] = 5% tween-80 in purified water, aqueous with cosolvent or surfactant or cyclodextrin, 5% tween -80
[4] = 20% sulfobutylether β-cyclodextrin in purified water, aqueous with cosolvent or surfactant or cyclodextrin

| solubility [1] [µg/mL] | solubility [2] [µg/mL] | solubility [3] [µg/mL] | solubility [4] [µg/mL] | solubility (in words) (purified water) | solubility (purified water, water) [µg/mL] | SMILES |
| --- | --- | --- | --- | --- | --- | --- |
| 582 | 3560 | 3540 | 3450 | almost insoluble | 618 | OC(c1ccccc1)(c1ccccc1)C12CC[N+](CCOCc3ccccc3)(CC1)CC2.[Br-] [UB, 1-[2-(benzyloxy)ethyl]-4-(hydroxydiphenylmethyl)-1-azoniabicyclo[2.2.2]octane bromide] |
| 62.6 (≈ 129 µM) | 370 (≈ 760 µM) | 1370 (≈ 2820 µM) | 1400 (≈ 2880 µM) | almost insoluble | 53.7 (≈ 110 µM) | OCc1cc([C@@H](O)CNCCCCCCOCCOCc2c(Cl)cccc2Cl)ccc1O [VT, triphenylacetic acid-4-{(1R)-2-[(6-{2-[(2,6-dicholorobenzyl)oxy]ethoxy}hexyl)amino]-1-hydroxyethyl}-2-(hydroxymethyl)phenol (1:1)] |
